Each structure is given as a SMILES string. pIC50: −log10 of the molar value. Some results are limits rather than exact numbers.

The target of the assay is T1, human GPR17 receptor (Homo sapiens, UniProt Q13304).
T1 construct: host or cells: HEK-293
T1 sequence (Q13304 whole entry): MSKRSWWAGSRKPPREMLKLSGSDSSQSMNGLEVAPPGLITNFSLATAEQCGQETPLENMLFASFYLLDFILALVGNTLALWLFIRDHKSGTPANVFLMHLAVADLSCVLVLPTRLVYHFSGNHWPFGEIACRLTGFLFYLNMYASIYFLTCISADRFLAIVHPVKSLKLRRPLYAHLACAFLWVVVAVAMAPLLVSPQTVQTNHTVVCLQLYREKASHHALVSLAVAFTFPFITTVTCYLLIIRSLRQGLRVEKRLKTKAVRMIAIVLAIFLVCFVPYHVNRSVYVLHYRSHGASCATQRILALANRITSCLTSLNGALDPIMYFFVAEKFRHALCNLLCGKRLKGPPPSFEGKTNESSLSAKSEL
Put plainly: Calcium mobilization functional assay (Fluo-8, FLIPR TETRA) in HEK-293 hGPR17 (Gα-q assay). The following applies: antagonism of MDL29,951 (~EC80) induced Ca2+ signal; cell line (HEK-293 hGPR17 or HEK-293 Suchi5 hGPR17) not given. Type of assay: cell-based. In a few lines:
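Fluo-8-loaded HEK-293 hGPR17 cells (60 min dye loading, room temperature) were preincubated with compound for twenty minutes, then challenged with agonist MDL29,951 at ~EC80, 500 nM. Intracellular calcium release via Gα-q was recorded as FLIPR fluorescence for a further 2 minutes; compounds tested in duplicate.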
For the compound `CC(C)n1cccc(-c2cc(S(=O)(=O)Nc3ccc(C#N)cc3F)c[nH]2)c1=O` [Cpd 603, N-(4-cyano-2-fluorophenyl)-5-(2-oxo-1-propan-2-ylpyridin-3-yl)-1H-pyrrole-3-sulfonamide], the pIC50 was 4.30 to 5.30.

For `N#Cc1ccc(NS(=O)(=O)c2c[nH]c(-c3cccn(C(F)F)c3=O)c2)c(F)c1` [Cpd 604, N-(4-cyano-2-fluorophenyl)-5-[1-(difluoromethyl)-2-oxopyridin-3-yl]-1H-pyrrole-3-sulfonamide], the pIC50 was 5.30 to 6.30.

On to `N#Cc1cc(F)c(NS(=O)(=O)c2c[nH]cc2Cc2cc(F)cc(Cl)c2)cc1F` [Cpd 605, 4-[(3-chloro-5-fluorophenyl)methyl]-N-(4-cyano-2,5-difluorophenyl)-1H-pyrrole-3-sulfonamide], for which the pIC50 was 5.30 to 6.30.

With `Cc1cnc(-c2cc(S(=O)(=O)Nc3cc(F)c(C(F)(F)F)cc3F)c[nH]2)s1` [Cpd 606, N-[2,5-difluoro-4-(trifluoromethyl)phenyl]-5-(5-methyl-1,3-thiazol-2-yl)-1H-pyrrole-3-sulfonamide], the pIC50 was 5.30 to 6.30.

As for `N#Cc1cnc(-c2cc(S(=O)(=O)Nc3cc(F)c(C(F)(F)F)cc3F)c[nH]2)s1` [Cpd 607, 5-(5-cyano-1,3-thiazol-2-yl)-N-[2,5-difluoro-4-(trifluoromethyl)phenyl]-1H-pyrrole-3-sulfonamide], the pIC50 is 4.30 to 5.30.

Take `N#Cc1ccc(NS(=O)(=O)c2c[nH]cc2Cc2ccc3c(c2)OCC3)c(F)c1` [Cpd 608, N-(4-cyano-2-fluorophenyl)-4-(2,3-dihydro-1-benzofuran-6-ylmethyl)-1H-pyrrole-3-sulfonamide]: the pIC50 was 4.30 to 5.30.

With `N#Cc1ccc(NS(=O)(=O)c2c[nH]c(F)c2Cc2ccccc2)c(F)c1` [Cpd 609, 4-benzyl-N-(4-cyano-2-fluorophenyl)-5-fluoro-1H-pyrrole-3-sulfonamide], the negative-log IC50 (pIC50) is 5.30 to 6.30.

Regarding `N#Cc1ccc(NS(=O)(=O)c2c[nH]c(-c3nccs3)c2)c(F)c1` [Cpd 610, N-(4-cyano-2-fluorophenyl)-5-(1,3-thiazol-2-yl)-1H-pyrrole-3-sulfonamide], the pIC50 is more than 6.30.

As to `O=S(=O)(Nc1cc(F)c(OC(F)F)cc1F)c1c[nH]c(-c2nnco2)c1` [Cpd 611, N-[4-(difluoromethoxy)-2,5-difluorophenyl]-5-(1,3,4-oxadiazol-2-yl)-1H-pyrrole-3-sulfonamide], the pIC50 is 5.30 to 6.30.

Take `[2H]c1ccc(-c2cc(S(=O)(=O)Nc3ccc(C#N)cc3F)c[nH]2)cc1` [Cpd 612, N-(4-cyano-2-fluorophenyl)-5-(4-deuteriophenyl)-1H-pyrrole-3-sulfonamide]: the pIC50 is more than 6.30.

As to `O=S(=O)(Nc1cc(F)c(OC(F)F)cc1F)c1c[nH]c(-c2ncns2)c1` [Cpd 613, N-[4-(difluoromethoxy)-2,5-difluorophenyl]-5-(1,2,4-thiadiazol-5-yl)-1H-pyrrole-3-sulfonamide], the pIC50 is 5.30 to 6.30.

As to `N#Cc1ccc(NS(=O)(=O)c2c[nH]c(-c3cccn(CC(F)(F)F)c3=O)c2)c(F)c1` [Cpd 614, N-(4-cyano-2-fluorophenyl)-5-[2-oxo-1-(2,2,2-trifluoroethyl)pyridin-3-yl]-1H-pyrrole-3-sulfonamide], the pIC50 is 4.30 to 5.30.

As for `N#Cc1cc(F)c(NS(=O)(=O)c2c[nH]c(-c3cccc4ccoc34)c2)cc1F` [Cpd 615, 5-(1-benzofuran-7-yl)-N-(4-cyano-2,5-difluorophenyl)-1H-pyrrole-3-sulfonamide], the pIC50 is more than 6.30.

Regarding `N#Cc1ccc(NS(=O)(=O)c2c[nH]cc2CC2CCCCC2)c(F)c1` [Cpd 616, N-(4-cyano-2-fluorophenyl)-4-(cyclohexylmethyl)-1H-pyrrole-3-sulfonamide], the pIC50 is 5.30 to 6.30.

With `N#Cc1cnc(-c2cc(S(=O)(=O)Nc3cc(F)c(OC(F)F)cc3F)c[nH]2)s1` [Cpd 617, 5-(5-cyano-1,3-thiazol-2-yl)-N-[4-(difluoromethoxy)-2,5-difluorophenyl]-1H-pyrrole-3-sulfonamide], the pIC50 is 4.30 to 5.30.

`O=S(=O)(Nc1cc(F)c(C(F)(F)F)cc1F)c1c[nH]c(-c2cnccn2)c1` [Cpd 618, N-[2,5-difluoro-4-(trifluoromethyl)phenyl]-5-pyrazin-2-yl-1H-pyrrole-3-sulfonamide]: the pIC50 was 5.30 to 6.30.

As for `O=S(=O)(Nc1cc(F)c(C(F)(F)F)cc1F)c1c[nH]c(-c2cccnn2)c1` [Cpd 619, N-[2,5-difluoro-4-(trifluoromethyl)phenyl]-5-pyridazin-3-yl-1H-pyrrole-3-sulfonamide], the negative logarithm of the IC50 (pIC50) is more than 6.30.

In the case of `Cn1cnc2c(-c3cc(S(=O)(=O)Nc4ccc(C#N)cc4F)c[nH]3)cccc21` [Cpd 620, N-(4-cyano-2-fluorophenyl)-5-(1-methylbenzimidazol-4-yl)-1H-pyrrole-3-sulfonamide], the pIC50 was 5.30 to 6.30.

Regarding `O=S(=O)(Nc1cc(F)c(C(F)(F)F)cc1F)c1c[nH]c(C2CCC(F)(F)C2)c1` (stereo not shown) [Cpd 621, 5-(3,3-difluorocyclopentyl)-N-[2,5-difluoro-4-(trifluoromethyl)phenyl]-1H-pyrrole-3-sulfonamide], the pIC50 was 5.30 to 6.30.

Take `N#Cc1ccc(NS(=O)(=O)c2c[nH]c(CC3CC3)c2)c(F)c1` [Cpd 622, N-(4-cyano-2-fluorophenyl)-5-(cyclopropylmethyl)-1H-pyrrole-3-sulfonamide]: the pIC50 was 5.30 to 6.30.

Regarding `N#Cc1ccc(NS(=O)(=O)c2c[nH]cc2Cc2ccncc2)c(F)c1` [Cpd 624, N-(4-cyano-2-fluorophenyl)-4-(pyridin-4-ylmethyl)-1H-pyrrole-3-sulfonamide], the negative-log IC50 (pIC50) is 5.30 to 6.30.

Consider `N#Cc1ccc(NS(=O)(=O)c2c[nH]cc2CCc2ccccc2)c(F)c1` [Cpd 625, N-(4-cyano-2-fluorophenyl)-4-(2-phenylethyl)-1H-pyrrole-3-sulfonamide], for which the pIC50 was 4.30 to 5.30.

`O=S(=O)(Nc1cc(F)c(C(F)(F)F)cc1F)c1c[nH]c(-c2ccccc2)c1F` [Cpd 626, N-[2,5-difluoro-4-(trifluoromethyl)phenyl]-4-fluoro-5-phenyl-1H-pyrrole-3-sulfonamide]: the pIC50 is more than 6.30.

For `O=S(=O)(Nc1cc(F)c(C(F)(F)F)cc1F)c1cc(-c2ccccc2)[nH]c1F` [Cpd 627, N-[2,5-difluoro-4-(trifluoromethyl)phenyl]-2-fluoro-5-phenyl-1H-pyrrole-3-sulfonamide], the pIC50 is 5.30 to 6.30.

Take `O=S(=O)(Nc1cc(F)c(OC(F)F)cc1F)c1c[nH]c(-c2cncs2)c1` [Cpd 628, N-[4-(difluoromethoxy)-2,5-difluorophenyl]-5-(1,3-thiazol-5-yl)-1H-pyrrole-3-sulfonamide]: the pIC50 was more than 6.30.

Turning to `O=S(=O)(Nc1cc(F)c(OC(F)F)cc1F)c1c[nH]c(-c2cscn2)c1` [Cpd 629, N-[4-(difluoromethoxy)-2,5-difluorophenyl]-5-(1,3-thiazol-4-yl)-1H-pyrrole-3-sulfonamide], the pIC50 is more than 6.30.

In the case of `O=S(=O)(Nc1ncc(C(F)(F)F)s1)c1c[nH]c(-c2ccccc2)c1` [Cpd 630, 5-phenyl-N-[5-(trifluoromethyl)-1,3-thiazol-2-yl]-1H-pyrrole-3-sulfonamide], the pIC50 was 5.30 to 6.30.

Take `N#Cc1cnc(NS(=O)(=O)c2c[nH]c(-c3ccccc3)c2)s1` [Cpd 631, N-(5-cyano-1,3-thiazol-2-yl)-5-phenyl-1H-pyrrole-3-sulfonamide]: the pIC50 is 5.30 to 6.30.

(Values after patent US20240299385A1 (ReWind Therapeutics NV, priority 2021, published 2024).)
